Assay results as given in patent US10071989B2, “Substituted cinnamamide derivative, preparation method and use thereof” (TASLY PHARMACEUTICAL GROUP CO., LTD., priority 2011, dated 2018).
“Also recorded” adds a separate entry of the source. Read-outs that look alike come from different tables or passages of the source. Marks after values point to notes of the source that are not given here.

Experiments:
C57BL/6 mice [1] = assay: Depression model test of anti-blepharoptosis caused by reserpine (akinesia, blepharoptosis, shell temperature); format: in vivo; details: for Blepharoptosis, “out-of-circle” ratio and shell temperature after reserpine (effect in words) / Change in the shell temperature (ΔT ° C.) / Degree of eye-closure / Change in the shell temperature (T ° C.) / responders at 10 mg/kg: 10 mg/kg intragastric 7 days; for Change in the shell temperature (ΔT ° C.) / Degree of eye-closure / Change in the shell temperature (T ° C.) / responders at 10 mg/kg: reserpine 4 mg/kg i.p.; for Change in the shell temperature (ΔT ° C.) / Change in the shell temperature (T ° C.): abdomen, two hours after reserpine; for Change in the shell temperature (ΔT ° C.) / Degree of eye-closure / Change in the shell temperature (T ° C.): ±SD; for Degree of eye-closure: score 0-4 one hour after reserpine; for responders at 10 mg/kg: Mus musculus, po, 1 h, one hour after reserpine, 7.5 cm circle, 15-second observation, read-out: “out-of-circle” ratio; for Improving akinesia, blepharoptosis and shell temperature: ranking among the tested compounds (in words): within the experiment
Protocol: 120 male C57BL/6 mice were randomly selected to observe the number of their autonomic activity. The mice was placed into the YLS-1A multi-functional mice autonomic activity recorder, and after 1 min of adaption, the activity of the mice was counted within a time period from the end of 1st min to 4th min. 96 mice with the number of autonomic activity between 70˜140 were screened out, divided randomly into 8 groups, and intragastrically administrated with the drug compounds at a dose listed in Table 3, one time daily for 7 days consecutively. The solvent control group was administrated with 2% Tween-80 aqueous solution in the same volume. Except the normal control group, 30 min after the last administration, each group was injected intraperitoneally with reserpine at a dose of 4 mg/kg. Next, akinesia, blepharoptosis and shell temperature were observed.
I Akinesia: one hour after intraperitoneal injection of reserpine, the mice were placed at the center of a circle with a diameter of 7.5 cm for a 15-second observation to calculate the “out-of-circle” ratio.
II Blepharoptosis: one hour after intraperitoneal injection of reserpine, the eye closure of mice was observed and scored by the following standard: eyelids open, 0; eyelids ¼ closed, 1; eyelids 2/4 closed, 2; eyelids ¾ closed, 3; eyelids closed completely, 4.
III Shell temperature: two hours after intraperitoneal injection of reserpine, the shell temperature of the abdomen of the mice was measured.
120 C57BL/6 mice were randomly selected to observe the number of their autonomic activity. The method was the same with that of Experiment 1. 100 mice with the number of autonomic activity between 70˜140 were screened out, divided randomly into 10 groups, and intragastrically administrated with the drug compounds at a dose listed in Table 4, one time daily for 7 days consecutively. The mice in the normal group and the solvent control group were administrated with 2% Tween-80 aqueous solution in the same volume. Except the normal control group, 30 min after the last administration, each group was injected intraperitoneally with reserpine at a dose of 4 mg/kg. Next, akinesia, blepharoptosis and shell temperature were observed. Observation method was the same with that of Experiment 1.

C57BL/6 mice [2] = assay: Number of autonomic activity of mice (YLS-1A autonomic activity recorder); format: in vivo; details: for Number of Autonomic activity (time): 10 mg/kg intragastric once daily, counted 30 min after administration at 6th day; for Effect on autonomic activity of mice (in words): 10 mg/kg intragastric, one week, compared with the solvent control group
Protocol: 110 mice were randomly selected to observe the number of their autonomic activity. The mice was placed into the YLS-1A multi-functional mice autonomic activity recorder, and after 1 min of adaption, the mice's activity was counted within a time period from the end of 1st min to 4th min. 96 mice with the number of autonomic activity between 70˜140 were screened out, divided randomly into 8 groups, and intragastrically administrated with the drug compounds at a dose listed in Table 1, one time daily for 7 days consecutively. The solvent control group was administrated with 2% Tween-80 aqueous solution in the same volume. All mice were placed into the autonomic activity recorder 30 min after administration at 6th day. After 1 min of adaption, the mice's activity was counted within a time period from the end of 1st min to 4th min.
(§1) 130 mice were randomly selected to observe the number of their autonomic activity. The method was the same with that of Experiment 1. 108 mice with the number of autonomic activity between 70˜140 were screened out, divided randomly into 9 groups, and intragastrically administrated with the drug compounds at a dose listed in Table 2, one time daily for 7 days consecutively. The solvent control group was administrated with 2% Tween-80 aqueous solution in the same volume. 30 min after administration at 6th day, the number of the autonomic activity of each mouse was observed. 30 min after administration at 7th day, the immobility time in tail suspension test was observed. The method was the same with that in Experiment 1.

[3] = Chinese patent application 201010169679.9; cited from earlier work
C57BL/6 mice [4] = assay: "Acquired despair" depression model of tail suspension test in mice; format: in vivo; details: for Effect on immobility time in tail suspension test (in words): 10 mg/kg intragastric for 7 days, compared with the solvent control group
Protocol: 30 min after administration at 7th day, the mice was fixed on a sustainer with a rubberized cloth at 1 cm close to the end of the tail of mice, making the mice hanged upside down. The head of the mice was about 30 cm above the table and its sight was separated from the neighboring mouse with a plate. Usually, the mice might manage to struggle in hopes of overcoming the abnormal body position. […] The accumulated immobility time within 6 min of each mouse was observed, which was regarded as “despair time”.
as §1

C57BL/6 mice [5] = assay: Forced swimming experiment in mice; format: in vivo; details: for Immobility time in the forced swimming test in mice(s): 30 min after last administration, end of 2nd min to 6th min; for Effect on immobility time in the forced swimming test (in words): within the dosage range (5-10 mg/kg), compared with the solvent control group
Protocol: After 1˜2 days of adaptive feed, 80 male C57BL/6 mice, aged 6˜8 weeks and weighing 18˜22 g, were placed into the YLS-1A multi-functional mice autonomic activity recorder. After 1 min of adaption, the activity of the mice was counted within a time period from the end of 1st min to 4th min. 60 mice with the number of autonomic activity between 70˜140 were screened out, divided randomly into 6 groups, and intragastrically administrated with the drug compounds at a dose listed in Table 5, one time daily for 7 days consecutively. The solvent control group was administrated with 2% Tween-80 aqueous solution in the same volume. After the administration at 6th day, the mice were placed into a cylindrical aquarium with a water depth of 10 cm and 25° C. to force the mice to swim. After 15 min, the mice were taken out, dried and returned to the cage. 24 hours later, 30 min after the last intragastrical administration, the mice were placed into a glass bottle with a diameter of 10 cm, a height of 30 cm and a water depth of 10 cm, and the temperature of the water in the bottle was at 25° C. The mice were separated with an opaque partition, so as not to influence each other. After 2 min of adaption, an accumulated immobility time from the end of 2nd min to 6th min was recorded.

mice = assay: Anti-depression effect in the tested models (overall conclusion); format: in vivo; details: in the tested model at the tested dose
Text: Based on the aforesaid experiments, the following conclusion can be drawn: • 1.

[6] = compared with the solvent control group
[7] = Experiment 1, end of 1st min to 4th min
[8] = 10 mg/kg intragastric once daily for 7 days
[9] = 10 mg/kg, compared with the solvent control group
[10] = 10 mg/kg, compared with I-1, p<0.05

SMILES	Blepharoptosis, “out-of-circle” ratio and shell temperature after reserpine (effect in words) (C57BL/6 mice [1]; [6])	Change in the shell temperature (ΔT ° C.) (C57BL/6 mice [1]; Experiment 1) [°C]	Degree of eye-closure (C57BL/6 mice [1]; Experiment 1)	Change in the shell temperature (T ° C.) (C57BL/6 mice [1]; Experiment 2) [°C]	Degree of eye-closure (C57BL/6 mice [1]; Experiment 2)	responders at 10 mg/kg (C57BL/6 mice [1]; Experiment 1) [%]	responders at 10 mg/kg (C57BL/6 mice [1]; Experiment 2) [%]	Number of Autonomic activity (time) (C57BL/6 mice [2]; [7])	Improving akinesia, blepharoptosis and shell temperature: ranking among the tested compounds (in words) (C57BL/6 mice [1]; 10 mg/kg)	Effect on immobility time in tail suspension test (in words) (C57BL/6 mice [4])	Immobility time in the forced swimming test in mice(s) (C57BL/6 mice [5]; [8])	Effect on immobility time in the forced swimming test (in words) (C57BL/6 mice [5])	Effect on autonomic activity of mice (in words) (C57BL/6 mice [2])	Number of Autonomic activity (time) (C57BL/6 mice [2]; Experiment 2)	Anti-depression effect compared with the pharmacologic effect of I-1 (in words) (mice)	Degree of eye closure / blepharoptosis after reserpine compared with I-1 (in words) (C57BL/6 mice [1]; 10 mg/kg)	further results
COc1cc(/C=C/C(=O)NCC(C)C)cc2c1OCO2 [Compound I-1, N-isobutyl-5′-methoxy-3′,4′-methylenedioxy cinnamamide]	improved significantly; also recorded: remarkably improve	2.05 ± 0.24	2.67 ± 0.89	27.80 ± 0.61	2.91 ± 0.75	17	10	113.92 ± 14.24	–	–	–	–	–	–	–	–	Anti-depressive effect in animal experiments (in words) [3]: significant anti-depressive effect
O=C(c1cc2c(c(C(F)(F)F)c1)OCO2)N1CCCCC1 [Compound I-13, 1-(5-trifluoromethyl-3,4-methylenedioxybenzoyl)-piperidine]	remarkably improve; also recorded: antagonizing the decrease of shell temperature, akinesia and improving the degree of eye closure	–	–	30.20 ± 0.95	0.90 ± 0.88	–	70	–	better effects	reduce the immobility time of the mice in tail suspension test significantly; also recorded: significantly shorten the immobility time	76.00 ± 32.32	shortening the immobility time; also recorded: shorten the immobility time	had no effect	87.40 ± 22.39	increased to some degree	–	Blepharoptosis, shell temperature and “out-of-circle” ratio compared with Compound I-1 (in words) (C57BL/6 mice [1]; 10 mg/kg, compared with I-1, p<0.05, p<0.01): significantly improved effect; Improvement in eye closure and shell temperature compared with fluoxetine (in words) (C57BL/6 mice [1]; 10 mg/kg, compared with fluoxetine, p<0.05): better effect to a certain degree
O=C(/C=C/c1cc2c(c(C(F)(F)F)c1)OCO2)N1CCCCC1 [Compound I-10]	antagonizing the decrease of shell temperature, akinesia and improving the degree of eye closure	–	–	27.15 ± 1.20	1.80 ± 1.32	–	30	–	–	reduce the immobility time of the mice in tail suspension test significantly; also recorded: significantly shorten the immobility time	83.07 ± 31.03	shortening the immobility time; also recorded: shorten the immobility time	had no effect	95.30 ± 15.06	increased to some degree	increased improvement	Blepharoptosis after reserpine (effect in words) (C57BL/6 mice [1]; [9]): improve blepharoptosis of the mice significantly; Shell temperature and “out-of-circle” ratio after reserpine (effect in words) (C57BL/6 mice [1]; [9]): to a certain degree but without statistically significant difference
CC(C)CNC(=O)/C=C/c1cc2c(c(C(F)(F)F)c1)OCO2 [Compound I-5, N-isobutyl-5′-trifluoromethyl-3′,4′-methylenedioxy cinnamamide]	improved significantly; also recorded: antagonizing the decrease of shell temperature, akinesia and improving the degree of eye closure	1.32 ± 0.16	0.42 ± 0.79**^ΔΔ	–	–	92	–	94.75 ± 23.98	best effect	remarkably reduce the immobility time; also recorded: reduce the immobility time of the mice in tail suspension test significantly; also recorded: significantly shorten the immobility time	78.58 ± 35.70	shortening the immobility time; also recorded: shorten the immobility time	had no affect; also recorded: had no effect	99.40 ± 19.67	increased to some degree	reduced	“out-of-circle” ratio after reserpine compared with I-1 (in words) (C57BL/6 mice [1]; [10]): increased markedly; Effect on antagonizing immobility in tail suspension test compared with I-1 (in words) (C57BL/6 mice [4]; [10]): better effect; Immobility time in the forced swimming test in mice(s) (C57BL/6 mice [5]; 5 mg/kg (low dose) intragastric once daily for 7 days): 91.20 ± 43.09 s; Dose dependence of the effect on immobility time in the forced swimming test (C57BL/6 mice [5]; 5 and 10 mg/kg): dose-dependent effect
